{"source": "patent US20260274892A1", "about": "“MACROCYCLIC BROAD SPECTRUM ANTIBIOTICS” (RQx Pharmaceuticals, Inc., priority 2017, published 2026)", "key": {"[1]": {"system": "Escherichia coli ATCC 25922", "test": "Minimum inhibitory concentration (MIC), CLSI broth micro-dilution, E. coli", "assay_type": "cell-based", "details": "Escherichia coli, ATCC25922, 22 h, Table 6, cation adjusted Mueller Hinton Broth + 0.002% Tween-80, 35° C.", "procedure,_shortened": "(§1)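 Colonies grown 20 h at 35° C on Trypticase Soy agar (MRSA) or Luria agar (E. coli) were suspended in cation-adjusted Mueller Hinton broth with 0.002% Tween-80. Suspensions were added at OD600 0.0005 to 10-point twofold compound dilutions, then incubated 22 h at 35° C.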"}, "[2]": {"system": "Methicillin Resistant Staphylococcus aureus strain USA 200", "test": "Minimum inhibitory concentration (MIC), CLSI broth micro-dilution, S. aureus", "assay_type": "cell-based", "details": "Staphylococcus aureus, MRSA / USA200; Table 6; MRSA USA 200; cation adjusted Mueller Hinton Broth + 0.002% Tween-80; 35° C., 22 hours", "procedure,_shortened": "as §1"}}}
{"smiles": "CCCC(F)(F)c1ccc(-c2nc(C)c(C(=O)N[C@@H](CCN)C(=O)N(C)[C@@H]3C(=O)N[C@@H](C)C(=O)N[C@H](C(=O)NCC#N)Cc4ccc(OCCN)c(c4)-c4cc3ccc4OCCN)c(C)n2)cc1", "note": "(racemic) [Compound 294, rac-(8S,11S,14S)-3,18-bis(2-aminoethoxy)-N-(cyanomethyl)-11-methyl-14-[methyl-[rac-(2S)-4-amino-2-[[2-[4-(1,1-difluorobutyl)phenyl]-4,6-dimethyl-pyrimidine-5-carbonyl]amino]butanoyl]amino]-10,13-dioxo-9,12-diazatricyclo[13.3.1.12,6]icosa-1(18),2(20),3,5,15(19),16-hexaene-8-carboxamide]", "values": [{"measurement": "MIC", "setting": "[1]", "value": 0.19, "unit": "µM"}, {"measurement": "MIC", "setting": "[2]", "value": 0.031, "unit": "µM"}]}
{"smiles": "Cc1nc(C2=CCC(C(C)(C)C)CC2)nc(C)c1C(=O)N[C@@H](CCN)C(=O)N(C)[C@@H]1C(=O)N[C@@H](C)C(=O)N[C@H](C(=O)NCC#N)Cc2ccc(OCCN)c(c2)-c2cc1ccc2OCCN", "note": "(mixture of isomers) [Compound 295, rac-(8S,11S,14S)-3,18-bis(2-aminoethoxy)-N-(cyanomethyl)-11-methyl-14-[methyl-[rac-(2S)-4-amino-2-[[2-(4-tert-butylcyclohexen-1-yl)-4,6-dimethyl-pyrimidine-5-carbonyl]amino]butanoyl]amino]-10,13-dioxo-9,12-diazatricyclo[13.3.1.12,6]icosa-1(18),2(20),3,5,15(19),16-hexaene-8-carboxamide]", "values": [{"measurement": "MIC", "setting": "[1]", "value": 0.063, "unit": "µM"}, {"measurement": "MIC", "setting": "[2]", "value": 0.0078, "unit": "µM"}]}
{"smiles": "Cc1nc(-c2ccc(C(C)(C)C)cc2O)nc(C)c1C(=O)N[C@@H](CCN)C(=O)N(C)[C@@H]1C(=O)N[C@@H](C)C(=O)N[C@H](C(=O)NCC#N)Cc2ccc(OCCN)c(c2)-c2cc1ccc2OCCN", "note": "(racemic) [Compound 298, rac-(8S,11S,14S)-3,18-bis(2-aminoethoxy)-N-(cyanomethyl)-11-methyl-14-[methyl-[rac-(2S)-4-amino-2-[[2-(4-tert-butyl-2-hydroxy-phenyl)-4,6-dimethyl-pyrimidine-5-carbonyl]amino]butanoyl]amino]-10,13-dioxo-9,12-diazatricyclo[13.3.1.12,6]icosa-1(18),2(20),3,5,15(19),16-hexaene-8-carboxamide]", "values": [{"measurement": "MIC", "setting": "[1]", "value": 0.13, "unit": "µM"}, {"measurement": "MIC", "setting": "[2]", "value": 0.016, "unit": "µM"}]}
{"smiles": "Cc1nc(-c2ccc(C3CC3)cc2)nc(C)c1C(=O)N[C@@H](CCN)C(=O)N(C)[C@@H]1C(=O)N[C@@H](C)C(=O)N[C@H](C(=O)NCC#N)Cc2ccc(OCCN)c(c2)-c2cc1ccc2OCCN", "note": "(racemic) [Compound 300, rac-(8S,11S,14S)-3,18-bis(2-aminoethoxy)-N-(cyanomethyl)-11-methyl-14-[methyl-[rac-(2S)-4-amino-2-[[2-(4-cyclopropylphenyl)-4,6-dimethyl-pyrimidine-5-carbonyl]amino]butanoyl]amino]-10,13-dioxo-9,12-diazatricyclo[13.3.1.12,6]icosa-1(18),2(20),3,5,15(19),16-hexaene-8-carboxamide]", "values": [{"measurement": "MIC", "setting": "[1]", "value": 0.25, "unit": "µM"}, {"measurement": "MIC", "setting": "[2]", "value": 0.031, "unit": "µM"}]}
{"smiles": "Cc1nc(-c2ccc(C3CCC3)cc2)nc(C)c1C(=O)N[C@@H](CCN)C(=O)N(C)[C@@H]1C(=O)N[C@@H](C)C(=O)N[C@H](C(=O)NCC#N)Cc2ccc(OCCN)c(c2)-c2cc1ccc2OCCN", "note": "(racemic) [Compound 301, rac-(8S,11S,14S)-3,18-bis(2-aminoethoxy)-N-(cyanomethyl)-11-methyl-14-[methyl-[rac-(2S)-4-amino-2-[[2-(4-cyclobutylphenyl)-4,6-dimethyl-pyrimidine-5-carbonyl]amino]butanoyl]amino]-10,13-dioxo-9,12-diazatricyclo[13.3.1.12,6]icosa-1(18),2(20),3,5,15(19),16-hexaene-8-carboxamide]", "values": [{"measurement": "MIC", "setting": "[1]", "value": 0.094, "unit": "µM"}, {"measurement": "MIC", "setting": "[2]", "value": 0.016, "unit": "µM"}]}
{"smiles": "Cc1nc(C#CC(C)(C)C)nc(C)c1C(=O)N[C@@H](CCN)C(=O)N(C)[C@@H]1C(=O)N[C@@H](C)C(=O)N[C@H](C(=O)NCC#N)Cc2ccc(OCCN)c(c2)-c2cc1ccc2OCCN", "note": "(racemic) [Compound 306, rac-(8S,11S,14S)-3,18-bis(2-aminoethoxy)-N-(cyanomethyl)-11-methyl-14-[methyl-[rac-(2S)-4-amino-2-[[2-(3,3-dimethylbut-1-ynyl)-4,6-dimethyl-pyrimidine-5-carbonyl]amino]butanoyl]amino]-10,13-dioxo-9,12-diazatricyclo[13.3.1.12,6]icosa-1(18),2(20),3,5,15(19),16-hexaene-8-carboxamide]", "values": [{"measurement": "MIC", "setting": "[1]", "value": 14, "unit": "µM"}, {"measurement": "MIC", "setting": "[2]", "value": 0.84, "unit": "µM"}]}
{"smiles": "CCc1ccc(C#Cc2nc(C)c(C(=O)N[C@@H](CCN)C(=O)N(C)[C@@H]3C(=O)N[C@@H](C)C(=O)N[C@H](C(=O)NCC#N)Cc4ccc(OCCN)c(c4)-c4cc3ccc4OCCN)c(C)n2)cc1", "note": "(racemic) [Compound 307, rac-(8S,11S,14S)-3,18-bis(2-aminoethoxy)-N-(cyanomethyl)-11-methyl-14-[methyl-[rac-(2S)-4-amino-2-[[2-[2-(4-ethylphenyl)ethynyl]-4,6-dimethyl-pyrimidine-5-carbonyl]amino]butanoyl]amino]-10,13-dioxo-9,12-diazatricyclo[13.3.1.12,6]icosa-1(18),2(20),3,5,15(19),16-hexaene-8-carboxamide]", "values": [{"measurement": "MIC", "setting": "[1]", "value": 0.2, "unit": "µM"}, {"measurement": "MIC", "setting": "[2]", "value": 0.033, "unit": "µM"}]}
{"smiles": "CCCCc1ccc(C#Cc2nc(C)c(C(=O)N[C@@H](CCN)C(=O)N(C)[C@@H]3C(=O)N[C@@H](C)C(=O)N[C@H](C(=O)NCC#N)Cc4ccc(OCCN)c(c4)-c4cc3ccc4OCCN)c(C)n2)cc1", "note": "(racemic) [Compound 308, rac-(8S,11S,14S)-3,18-bis(2-aminoethoxy)-N-(cyanomethyl)-11-methyl-14-[methyl-[rac-(2S)-4-amino-2-[[2-[2-(4-butylphenyl)ethynyl]-4,6-dimethyl-pyrimidine-5-carbonyl]amino]butanoyl]amino]-10,13-dioxo-9,12-diazatricyclo[13.3.1.12,6]icosa-1(18),2(20),3,5,15(19),16-hexaene-8-carboxamide]", "values": [{"measurement": "MIC", "setting": "[1]", "value": 0.096, "unit": "µM"}, {"measurement": "MIC", "setting": "[2]", "value": 0.012, "unit": "µM"}]}
{"smiles": "Cc1nc(C#Cc2ccccc2)nc(C)c1C(=O)N[C@@H](CCN)C(=O)N(C)[C@@H]1C(=O)N[C@@H](C)C(=O)N[C@H](C(=O)NCC#N)Cc2ccc(OCCN)c(c2)-c2cc1ccc2OCCN", "note": "(racemic) [Compound 309, rac-(8S,11S,14S)-3,18-bis(2-aminoethoxy)-N-(cyanomethyl)-11-methyl-14-[methyl-[rac-(2S)-4-amino-2-[[4,6-dimethyl-2-(2-phenylethynyl)pyrimidine-5-carbonyl]amino]butanoyl]amino]-10,13-dioxo-9,12-diazatricyclo[13.3.1.12,6]icosa-1(18),2(20),3,5,15(19),16-hexaene-8-carboxamide]", "values": [{"measurement": "MIC", "setting": "[1]", "value": 1.1, "unit": "µM"}, {"measurement": "MIC", "setting": "[2]", "value": 0.27, "unit": "µM"}]}
{"smiles": "Cc1nc(C#Cc2ccc(C(C)(C)C)cc2)nc(C)c1C(=O)N[C@@H](CCN)C(=O)N(C)[C@@H]1C(=O)N[C@@H](C)C(=O)N[C@H](C(=O)NCC#N)Cc2ccc(OCCN)c(c2)-c2cc1ccc2OCCN", "note": "(racemic) [Compound 311, rac-(8S,11S,14S)-3,18-bis(2-aminoethoxy)-N-(cyanomethyl)-11-methyl-14-[methyl-[rac-(2S)-4-amino-2-[[2-[2-(4-tert-butylphenyl)ethynyl]-4,6-dimethyl-pyrimidine-5-carbonyl]amino]butanoyl]amino]-10,13-dioxo-9,12-diazatricyclo[13.3.1.12,6]icosa-1(18),2(20),3,5,15(19),16-hexaene-8-carboxamide]", "values": [{"measurement": "MIC", "setting": "[1]", "value": 8.2, "unit": "µM"}, {"measurement": "MIC", "setting": "[2]", "value": 1, "unit": "µM"}]}
{"smiles": "CC(C)=Cc1ccc(C#Cc2nc(C)c(C(=O)N[C@@H](CCN)C(=O)N(C)[C@@H]3C(=O)N[C@@H](C)C(=O)N[C@H](C(=O)NCC#N)Cc4ccc(OCCN)c(c4)-c4cc3ccc4OCCN)c(C)n2)cc1", "note": "(racemic) [Compound 313, rac-(8S,11S,14S)-3,18-bis(2-aminoethoxy)-N-(cyanomethyl)-11-methyl-14-[methyl-[rac-(2S)-4-amino-2-[[4,6-dimethyl-2-[2-[4-(2-methylprop-1-enyl)phenyl]ethynyl]pyrimidine-5-carbonyl]amino]butanoyl]amino]-10,13-dioxo-9,12-diazatricyclo[13.3.1.12,6]icosa-1(18),2(20),3,5,15(19),16-hexaene-8-carboxamide]", "values": [{"measurement": "MIC", "setting": "[1]", "value": 0.13, "unit": "µM"}, {"measurement": "MIC", "setting": "[2]", "value": 0.016, "unit": "µM"}]}
{"smiles": "Cc1nc(N2CCC(C(C)(C)C)CC2)nc(C)c1C(=O)N[C@@H](CCN)C(=O)N(C)[C@@H]1C(=O)N[C@@H](C)C(=O)N[C@H](C(=O)NCC#N)Cc2ccc(OCCN)c(c2)-c2cc1ccc2OCCN", "note": "(racemic) [Compound 315, rac-(8S,11S,14S)-3,18-bis(2-aminoethoxy)-N-(cyanomethyl)-11-methyl-14-[methyl-[rac-(2S)-4-amino-2-[[2-(4-tert-butyl-1-piperidyl)-4,6-dimethyl-pyrimidine-5-carbonyl]amino]butanoyl]amino]-10,13-dioxo-9,12-diazatricyclo[13.3.1.12,6]icosa-1(18),2(20),3,5,15(19),16-hexaene-8-carboxamide]", "values": [{"measurement": "MIC", "setting": "[1]", "value": 0.25, "unit": "µM"}, {"measurement": "MIC", "setting": "[2]", "value": 0.016, "unit": "µM"}]}
{"smiles": "Cc1nc(N2CC(C(C)(C)C)C2)nc(C)c1C(=O)N[C@@H](CCN)C(=O)N(C)[C@@H]1C(=O)N[C@@H](C)C(=O)N[C@H](C(=O)NCC#N)Cc2ccc(OCCN)c(c2)-c2cc1ccc2OCCN", "note": "(racemic) [Compound 316, rac-(8S,11S,14S)-3,18-bis(2-aminoethoxy)-N-(cyanomethyl)-11-methyl-14-[methyl-[rac-(2S)-4-amino-2-[[2-(3-tert-butylazetidin-1-yl)-4,6-dimethyl-pyrimidine-5-carbonyl]amino]butanoyl]amino]-10,13-dioxo-9,12-diazatricyclo[13.3.1.12,6]icosa-1(18),2(20),3,5,15(19),16-hexaene-8-carboxamide]", "values": [{"measurement": "MIC", "setting": "[1]", "value": 1.5, "unit": "µM"}, {"measurement": "MIC", "setting": "[2]", "value": 0.38, "unit": "µM"}]}
